{"source": "patent US20080182978A1", "about": "“ANTI-NGF ANTIBODIES AND METHODS USING SAME” (RINAT NEUROSCIENCE CORP, priority 2002, published 2008)", "format_in_all_cases": "in vivo, rat", "key": {"[1]": {"test_system": "complete Freund's adjuvant (CFA)-induced chronic arthritis", "assay": "CFA arthritis rats, X-ray analysis of hindpaws (radiological index)", "conditions": "for X-ray score: Deformity / X-ray score: Demineralization / X-ray score: Erosions / X-ray score: Periostal reaction / X-ray score: Soft tissue damage / X-ray score: Space joint / X-ray score: osteogenesis: score 0-4", "procedure": "On Day 24, after blood collecting the animals were sacrificed and X-ray radiographies (hindpaws) were obtained for assessment of joint lesions. X-ray analysis was focused on articular erosions, articular space, periosteum abnormalities on both hindpaws. All the radiographies were analyzed by looking at seven different items: the soft tissue damage, deformity, demineralization, joint space, erosions, osteogenesis and periostal reaction. For each animal, the first six items were analyzed independently by looking at the worse hind foot. The periostal reaction was analyzed by looking at the tail. For each item, the score goes from 0 (normal) to 4 (maximal damage). Therefore the total score goes from 0 to 28. The radiographic interpretation was done by the same reader without knowing anything about the animals (treated or not treated).\nAll results were reported as Mean ±S.E.M. of 10 rats in each group at each time point. Paw volume was expressed in ml calculated from the mean value of the right and left paw volume. Arthritis index was calculated from the sum of the score obtained for each of the 4 paws. The nociceptive response was evaluated by the intensity of the level of vocalization recorded for each animal (mean of 4 values: 2 times/paw) in mV. The percentage inhibition of the nociceptive response was calculated from the mean value of the vehicle-treated arthritic group [(mean value of vehicle-treated arthritic group−mean value of treated arthritic group/mean value of vehicle-treated arthritic group)*100]. Body weight was expressed in grams. Hindpaws (left and right) weight was expressed in grams. Cytokine levels (IL-6, IL-1β, TNF-α and TGF-β1) of each hind paw was expressed in pg/ml. Circulating levels of TGF-β1 was expressed in pg/ml. Radiological index for each parameter (demineralization, erosions, periostal reaction, soft tissue damage, space joint, osteogenesis deformity) and total radiological index (total score) were calculated from the sum of the scores obtained for each parameter. The inter-group significances of the deviations between the values of vehicle-treated group (arthritic rats) and vehicle-treated group (non arthritic rats) were assessed by the Student t test or Mann-Whitney Rank Sum Test when equal variance or normality test failed. The inter-group significances of the deviations between the values of vehicle-treated group (arthritic rats) and E3- and 911- and Indomethacin-treated groups were assessed by the 1-way analysis of variance ANOVA followed by the non-paired Dunnett t test. A probability of P<0.05 was considered as significant. All statistical analysis was performed by the Sigmastat™ software."}, "[2]": {"test_system": "TGF-β1", "assay": "CFA arthritis rats, circulating TGF-β1 in serum (ELISA)", "conditions": "D24; for serum TGF-β1 level: arthritic rats, E3 1 mg/kg or 911 10 mg/kg i.v. D14+D19, indomethacin 3 mg/kg p.o.", "procedure": "(§1) On Day 24 (after paw volume and arthritis index measurements and test vocalization), under general anaesthesia using isoflurane (in a mixture of oxygen and nitrous oxide), the blood samples (about 800-1000 μl) was collected by capillary action with a micropipette from retroorbital sinus.\nMeasurement of circulating TGF-β1 (groups 1-2-3-4-5): A part of blood sample was collected in micro tubes for serum preparation at ambient temperature. Following sample collection, blood was mixed and allowed to clot for 30 minutes prior to the centrifugation. The tubes were centrifuged at about 6000 g for 3 minutes. Each serum sample (at least 100 μL, except for rat #52 and #53) was aliquoted and stored at −20° C. until sample activation for TGF-β1 analysis. These aliquots (50 vials) were kept for a period of 6 months starting from the end of the study. […] TGF-β1 levels were measured using human TGF-β1 ELISA kit (ref. DB100, Batch 212258 and 213610, R&D Systems—France).\nAll results were reported as Mean ±S.E.M. of 10 rats in each group at each time point. Paw volume was expressed in ml calculated from the mean value of the right and left paw volume. Arthritis index was calculated from the sum of the score obtained for each of the 4 paws. The nociceptive response was evaluated by the intensity of the level of vocalization recorded for each animal (mean of 4 values: 2 times/paw) in mV. The percentage inhibition of the nociceptive response was calculated from the mean value of the vehicle-treated arthritic group [(mean value of vehicle-treated arthritic group−mean value of treated arthritic group/mean value of vehicle-treated arthritic group)*100]. […] Radiological index for each parameter (demineralization, erosions, periostal reaction, soft tissue damage, space joint, osteogenesis deformity) and total radiological index (total score) were calculated from the sum of the scores obtained for each parameter. […]"}, "[3]": {"assay": "CFA arthritis rats, hematological parameters", "conditions": "for effect on blood parameters compared to vehicle-treated arthritic group: E3 1 mg/kg or 911 10 mg/kg i.v. D14+D19, indomethacin 3 mg/kg/day p.o. 10 days; for Hematocrit / Hemoglobin / Platelets / Red blood cells / White blood cells: arthritic rats, E3 1 mg/kg or 911 10 mg/kg i.v. D14+D19, indomethacin 3 mg/kg p.o. over 10 days, D24", "procedure": "as §1\nBlood collection for hematological parameters (groups 1-2-3-4-5: 50 vials): A part of blood sample was collected in tubes containing K3—EDTA (at least 100 μL). The determination of parameters were performed on the day of the collection and the samples were not stored. The hematological parameters including red blood cells, white blood cells, platelets, hemoglobin, hematocrit were measured with a hematology cell counter (D 24). Some hematological parameters were not measured due to the clotted samples (vehicle-freated non arthritic rat: #10; E3-treated arthritic rats: #59, #67; 911-treated arthritic rats: #16)."}, "[4]": {"conditions": "indomethacin 3 mg/kg/day p.o. 10 days"}, "[5]": {"conditions": "arthritic rats, E3 1 mg/kg or 911 10 mg/kg i.v. D14+D19, indomethacin 3 mg/kg p.o., D24"}}}
{"molecule": "COc1ccc2c(c1)c(CC(=O)O)c(C)n2C(=O)c1ccc(Cl)cc1", "note": "[Indomethacin, reference compound]", "values": [{"measurement": "decrease of X-ray total score in comparison to vehicle-treated arthritic rats", "setting": "[1]; [4]", "value": "about 10.7"}, {"measurement": "X-ray score: Deformity", "setting": "[1]; [5]", "value": "0.4 ± 0.2"}, {"measurement": "X-ray score: Demineralization", "setting": "[1]; [5]", "value": "0.3 ± 0.2"}, {"measurement": "X-ray score: Erosions", "setting": "[1]; [5]", "value": "0.9 ± 0.2"}, {"measurement": "X-ray score: Periostal reaction", "setting": "[1]; [5]", "value": "0.7 ± 0.3"}, {"measurement": "X-ray score: Soft tissue damage", "setting": "[1]; [5]", "value": "1.0 ± 0.2"}, {"measurement": "X-ray score: Space joint", "setting": "[1]; [5]", "value": "1.0 ± 0.2"}, {"measurement": "X-ray score: osteogenesis", "setting": "[1]; [5]", "value": "0.1 ± 0.1"}, {"measurement": "serum TGF-β1 level", "setting": "[2]", "value": "57222.2 ± 3194.1", "unit": "pg/mL"}, {"measurement": "decrease of serum TGF-β1 level compared to vehicle-treated arthritic group", "setting": "[2]; [4]", "value": "about 1.5 times"}, {"measurement": "effect on blood parameters compared to vehicle-treated arthritic group", "setting": "[3]", "value": "did not affect the blood parameters"}, {"measurement": "Hematocrit", "setting": "[3]", "value": "35.0 ± 1.5", "unit": "%"}, {"measurement": "Hemoglobin", "setting": "[3]", "value": "11.8 ± 0.6", "unit": "g/dL"}, {"measurement": "Platelets", "setting": "[3]", "value": "705 ± 111 10^3/mm^3"}, {"measurement": "Red blood cells", "setting": "[3]", "value": "6.93 ± 0.31 10^6/mm^3"}, {"measurement": "White blood cells", "setting": "[3]", "value": "21.7 ± 2.5 10^3/mm^3"}]}
{"molecule": "E3: humanized, affinity matured anti-NGF antagonist antibody; variable regions SEQ ID NO:1 and 2; human IgG2a (A330P331 to S330S331), kappa (antibody, V domains shown, human IgG2a constant (A330S/P331S) and kappa constant missing) VH: QVQLQESGPGLVKPSETLSLTCTVSGFSLIGYDLNWIRQPPGKGLEWIGIIWGDGTTDYNSAVKSRVTISKDTSKNQFSLKLSSVTAADTAVYYCARGGYWYATSYYFDYWGQGTLVTVS VL: DIQMTQSPSSLSASVGDRVTITCRASQSISNNLNWYQQKPGKAPKLLIYYTSRFHSGVPSRFSGSGSGTDFTFTISSLQPEDIATYYCQQEHTLPYTFGQGTKLEIKRT", "values": [{"measurement": "X-ray score: Deformity", "setting": "[1]; [5]", "value": "1.8 ± 0.2"}, {"measurement": "X-ray score: Demineralization", "setting": "[1]; [5]", "value": "2.0 ± 0.2"}, {"measurement": "X-ray score: Erosions", "setting": "[1]; [5]", "value": "2.4 ± 0.3"}, {"measurement": "X-ray score: Periostal reaction", "setting": "[1]; [5]", "value": "0.8 ± 0.2"}, {"measurement": "X-ray score: Soft tissue damage", "setting": "[1]; [5]", "value": "3.3 ± 0.3"}, {"measurement": "X-ray score: Space joint", "setting": "[1]; [5]", "value": "2.7 ± 0.2"}, {"measurement": "X-ray score: osteogenesis", "setting": "[1]; [5]", "value": "1.2 ± 0.2"}, {"measurement": "X-ray TOTAL score", "setting": "[1]; score 0-28, arthritic rats, E3 1 mg/kg or 911 10 mg/kg i.v. D14+D19, indomethacin 3 mg/kg p.o., D24", "value": "14.2±1.3"}, {"measurement": "serum TGF-β1 level", "setting": "[2]", "value": "69408.8 ± 3926.7", "unit": "pg/mL"}, {"measurement": "effect on blood parameters compared to vehicle-treated arthritic group", "setting": "[3]", "value": "did not affect the blood parameters"}, {"measurement": "Hematocrit", "setting": "[3]", "value": "38.5 ± 1.0", "unit": "%"}, {"measurement": "Hemoglobin", "setting": "[3]", "value": "12.9 ± 0.3", "unit": "g/dL"}, {"measurement": "Platelets", "setting": "[3]", "value": "827 ± 77 10^3/mm^3"}, {"measurement": "Red blood cells", "setting": "[3]", "value": "7.74 ± 0.17 10^6/mm^3"}, {"measurement": "White blood cells", "setting": "[3]", "value": "19.1 ± 1.2 10^3/mm^3"}]}
